The results in this text go back to patent US8455534B2, “Estrogen receptor modulators and uses thereof” (Aragon Pharmaceuticals, Inc., priority 2010, dated 2013).

The test system of one experiment is MCF-7 cells. In words: Breast Cancer Cell Viability Assay (MCF-7, CellTiter-Glo). Format: cell-based. The settings on record: 5 days' compound exposure; for IC50: Homo sapiens, MCF7, 120 h. The method in brief: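 Eleven-point semilog compound series, final 0.3-0.000003 μM, added to overnight-adhered MCF-7 cells (320/well; RPMI, 10% FBS, 20 mM HEPES) for 5 days. Viability read by CellTiter-Glo luminescence, background from medium without cells subtracted, expressed relative to untreated cells.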

In a further experiment the target is T1, ER-α (Homo sapiens, UniProt P03372).
T1 sequence (P03372 1-595): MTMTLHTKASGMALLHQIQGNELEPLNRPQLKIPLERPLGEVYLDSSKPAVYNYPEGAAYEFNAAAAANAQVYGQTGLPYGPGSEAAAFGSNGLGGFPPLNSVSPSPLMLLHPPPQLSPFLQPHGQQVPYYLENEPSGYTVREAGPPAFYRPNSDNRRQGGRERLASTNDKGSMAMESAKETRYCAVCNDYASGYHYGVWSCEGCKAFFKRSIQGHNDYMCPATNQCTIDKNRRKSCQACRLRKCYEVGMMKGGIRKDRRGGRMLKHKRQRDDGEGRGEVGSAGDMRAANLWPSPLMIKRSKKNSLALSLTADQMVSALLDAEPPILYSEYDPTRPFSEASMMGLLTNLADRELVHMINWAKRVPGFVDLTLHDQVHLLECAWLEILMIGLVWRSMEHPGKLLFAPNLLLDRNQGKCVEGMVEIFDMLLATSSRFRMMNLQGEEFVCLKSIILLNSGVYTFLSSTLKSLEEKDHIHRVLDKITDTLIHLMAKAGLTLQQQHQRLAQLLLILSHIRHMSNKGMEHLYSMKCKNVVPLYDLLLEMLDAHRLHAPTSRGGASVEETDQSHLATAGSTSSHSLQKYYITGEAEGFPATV
In words: Breast Cancer Cell ER-α In Cell Western Assay (SP1). The format is cell-based. Conditions: MCF-7 cells, SP1 antibody, 4 or 24 hr post compound addition; for Emax: MCF7, read-out: ER-α In Cell Western Assay (SP1) Max Response; for DC50: read-out: ER-α In Cell Western Assay (SP1) IC50. The method in brief: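 ER-α protein levels measured by in-cell western with SP1 antibody, ratioed to DRAQ5 DNA signal and given as percent of untreated controls. Compounds added at 0.3–0.000003 μM final (eleven semilog points) to adherent MCF-7 cells in stripped serum; exposure 4 or 24 h before fixation.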

A value given as a limit tells only on which side of the number the result lay.

Usually IC50 stands for the concentration needed to halve the response being measured. A low value points to greater potency. Consider `CCOC(=O)/C=C/c1ccc(/C(=C(/CC)c2ccc(F)cc2Cl)c2ccc3[nH]ncc3c2)cc1.Cl` [Compound 110, (E)-Ethyl 3-(4-((E)-2-(2-chloro-4-fluorophenyl)-1-(1H-indazol-5-yl)but-1-en-1-yl)phenyl)acrylate hydrochloride], for which, in the experiment on MCF-7 cells, the “MCF7 Viability Assay Max Response” value was “+ (+ = a single % value < 40%)” and the half-inhibitory concentration (IC50) is at most 0.1 µM. Besides, at ER-α, the Emax was at least 40% and the DC50 is at most 0.1 µM.
As for `CC/C(=C(/c1ccc(/C=C/C(=O)O)cc1)c1ccc2[nH]ncc2c1F)c1ccccc1` [Compound 49, (E)-3-(4-((E)-1-(4-Fluoro-1H-indazol-5-yl)-2-phenylbut-1-en-1-yl)phenyl)acrylic acid], in the experiment on MCF-7 cells, the “MCF7 Viability Assay Max Response” value was “++ (++ = a single % value ≧ 40%)” and the IC50 is at most 0.1 µM. On ER-α, the Emax is at least 40% and the DC50 is at most 0.1 µM.
As to `CC/C(=C(/c1ccc(/C=C/C(=O)O)cc1)c1ccc2[nH]ncc2c1)c1ccc(C#N)cc1Cl` [Compound 140, (E)-3-(4-((E)-2-(2-Chloro-4-cyanophenyl)-1-(1H-indazol-5-yl)but-1-en-1-yl)phenyl)acrylic acid], in the experiment on MCF-7 cells, the “MCF7 Viability Assay Max Response” value is “++ (++ = a single % value ≧ 40%)” and the IC50 is at most 0.1 µM. Also, on ER-α, the Emax was at least 40%.
As for `CC/C(=C(/c1ccc(/C=C/C(=O)O)cc1)c1ccc2[nH]ncc2c1)c1c(C)cccc1Cl` [Compound 34, (E)-3-(4-((E)-2-(2-Chloro-6-methylphenyl)-1-(1H-indazol-5-yl)but-1-en-1 yl)phenyl)acrylic acid], in the experiment with MCF-7 cells, the “MCF7 Viability Assay Max Response” value is listed as “++ (++ = a single % value ≧ 40%)” and the half-maximal inhibitory concentration (IC50) is at most 0.1 µM. For the same molecule, at ER-α, the Emax was at least 40% and the DC50 was at most 0.1 µM.
Take `CC/C(=C(/c1ccc(/C=C/C(=O)O)cc1)c1ccc2[nH]ncc2c1F)c1ccc(F)cc1C` [Compound 69, (E)-3-(4-((E)-1-(4-Fluoro-1H-indazol-5-yl)-2-(4-fluoro-2-methylphenyl)but-1-en-1-yl)phenyl)acrylic acid]: in the experiment on MCF-7 cells, the “MCF7 Viability Assay Max Response” value is “++ (++ = a single % value ≧ 40%)” and the IC50 is at most 0.1 µM. Besides, on ER-α, the Emax is at least 40% and the DC50 was at most 0.1 µM.
Consider `CC/C(=C(/c1ccc(/C=C/C(=O)O)cc1)c1ccc2[nH]ncc2c1)c1ccc(C)cc1` [Compound 11, (E)-3-(4-((E)-1-(1H-Indazol-5-yl)-2-(p-tolyl)but-1-en-1-yl)phenyl)acrylic acid], for which, in the experiment on MCF-7 cells, the “MCF7 Viability Assay Max Response” value is on record as “++ (++ = a single % value ≧ 40%)” and the IC50 is at most 0.1 µM. At ER-α, the Emax is at least 40% and the DC50 was at most 0.1 µM.
Consider `O=C(O)/C=C/c1ccc(/C(=C(\c2ccccc2)C2CC2)c2ccc3[nH]ncc3c2F)cc1` [Compound 75, (E)-3-(4-((E)-2-Cyclopropyl-1-(4-fluoro-1H-indazol-5-yl)-2-phenylvinyl)phenyl)acrylic acid], for which, in the experiment with MCF-7 cells, the “MCF7 Viability Assay Max Response” value is recorded as “++ (++ = a single % value ≧ 40%)” and the IC50 is at most 0.1 µM. For the same molecule, at ER-α, the Emax was at least 40% and the DC50 is at most 0.1 µM.
As for `CC/C(=C(/c1ccc(/C=C/C(=O)O)cc1)c1ccc2[nH]ncc2c1)c1cc(S(C)(=O)=O)ccc1C` [Compound 127, (E)-3-(4-((E)-1-(1H-Indazol-5-yl)-2-(2-methyl-5-(methylsulfonyl)phenyl)but-1-en-1-yl)phenyl)acrylic acid], in the experiment with MCF-7 cells, the “MCF7 Viability Assay Max Response” value was “+ (+ = a single % value < 40%)” and the IC50 is above 0.1 µM. Moreover, at ER-α, the Emax was below 40% and the DC50 is above 0.1 µM.
Consider `CC/C(=C(/c1ccc(/C=C/C(=O)O)cc1)c1ccc2[nH]ncc2c1)c1cccc(F)c1F` [Compound 31, (E)-3-(4-((E)-2-(2,3-Difluorophenyl)-1-(1H-indazol-5-yl)but-1-en-1-yl)phenyl)acrylic acid], for which, in the experiment on MCF-7 cells, the “MCF7 Viability Assay Max Response” value is on record as “++ (++ = a single % value ≧ 40%)” and the IC50 was at most 0.1 µM. On ER-α, the Emax was at least 40% and the DC50 was at most 0.1 µM.
Take `Cc1cc(F)ccc1/C(=C(\c1ccc(/C=C/C(=O)O)cc1)c1ccc2[nH]ncc2c1F)C1CC1` [Compound 71, (E)-3-(4-((E)-2-Cyclopropyl-1-(4-fluoro-1H-indazol-5-yl)-2-(4-fluoro-2-methylphenyl)vinyl)phenyl)acrylic acid]: in the experiment with MCF-7 cells, the “MCF7 Viability Assay Max Response” value is on record as “++ (++ = a single % value ≧ 40%)” and the IC50 was at most 0.1 µM. At ER-α, the Emax is at least 40% and the DC50 is at most 0.1 µM.
With `CC/C(=C(/c1ccc(/C=C/C(=O)O)cc1)c1ccc2[nH]ncc2c1)c1cc(F)ccc1F` [Compound 32, (E)-3-(4-((E)-2-(2,5-Difluorophenyl)-1-(1H-indazol-5-yl)but-1-en-1-yl)phenyl)acrylic acid], in the experiment on MCF-7 cells, the “MCF7 Viability Assay Max Response” value is given as “++ (++ = a single % value ≧ 40%)” and the IC50 is at most 0.1 µM. Also, at ER-α, the Emax was at least 40% and the DC50 was at most 0.1 µM.
`O=C(O)/C=C/c1ccc(/C(=C(\c2ccccc2)C2CC2)c2ccc3[nH]ncc3c2)cc1` [Compound 24, (E)-3-(4-((E)-2-Cyclopropyl-1-(1H-indazol-5-yl)-2-phenylvinyl)phenyl)acrylic acid]: in the experiment on MCF-7 cells, the “MCF7 Viability Assay Max Response” value is given as “++ (++ = a single % value ≧ 40%)” and the IC50 was at most 0.1 µM. Besides, at ER-α, the Emax was at least 40% and the DC50 was at most 0.1 µM.
Regarding `CC/C(=C(/c1ccc(/C=C/C(=O)O)cc1)c1ccc2[nH]ncc2c1)c1ccc(OC)cc1` [Compound 13, (E)-3-(4-((E)-1-(1H-Indazol-5-yl)-2-(4-methoxyphenyl)but-1-en-1-yl)phenyl)acrylic acid], in the experiment on MCF-7 cells, the “MCF7 Viability Assay Max Response” value is “++ (++ = a single % value ≧ 40%)” and the IC50 is at most 0.1 µM. Further, on ER-α, the Emax was at least 40% and the DC50 is at most 0.1 µM.
As for `CC/C(=C(/c1ccc(/C=C/C(=O)O)cc1)c1ccc2[nH]ncc2c1)c1ccc(F)cc1C(F)(F)F` [Compound 116, (E)-3-(4-((E)-2-(4-Fluoro-2-(trifluoromethyl)phenyl)-1-(1H-indazol-5-yl)but-1-en-1-yl)phenyl)acrylic acid], in the experiment on MCF-7 cells, the “MCF7 Viability Assay Max Response” value was “++ (++ = a single % value ≧ 40%)” and the IC50 was at most 0.1 µM. Also, at ER-α, the Emax is at least 40% and the DC50 was at most 0.1 µM.
For `CC/C(=C(/c1ccc(/C=C/C(=O)O)cc1)c1ccc2[nH]ncc2c1F)c1ccc(Cl)cc1C(F)(F)F` [Compound 119, (E)-3-(4-((E)-2-(4-Chloro-2-(trifluoromethyl)phenyl)-1-(4-fluoro-1H-indazol-5-yl)but-1-en-1-yl)phenyl)acrylic acid], in the experiment on MCF-7 cells, the “MCF7 Viability Assay Max Response” value is recorded as “++ (++ = a single % value ≧ 40%)” and the IC50 is at most 0.1 µM. For the same molecule, at ER-α, the Emax is at least 40% and the DC50 is at most 0.1 µM.
For `CCOC(=O)/C=C/c1ccc(/C(=C(/CC)c2ccc(F)cc2)c2ccc3[nH]ncc3c2)cc1` [Compound 90, (E)-Ethyl 3-(4-((E)-2-(4-fluorophenyl)-1-(1H-indazol-5-yl)but-1-en-1-yl)phenyl)acrylate], in the experiment with MCF-7 cells, the “MCF7 Viability Assay Max Response” value is “+ (+ = a single % value < 40%)” and the IC50 was at most 0.1 µM. For the same molecule, at ER-α, the Emax was at least 40% and the DC50 is at most 0.1 µM.
For the molecule `CC/C(=C(/c1ccc(/C=C/C(=O)O)cc1)c1cc(F)c2[nH]ncc2c1)c1ccc(Cl)cc1Cl` [Compound 134, (E)-3-(4-((E)-2-(2,4-Dichlorophenyl)-1-(7-fluoro-1H-indazol-5-yl)but-1-en-1-yl)phenyl)acrylic acid], in the experiment with MCF-7 cells, the “MCF7 Viability Assay Max Response” value was “++ (++ = a single % value ≧ 40%)” and the IC50 was at most 0.1 µM. Also, at ER-α, the Emax is at least 40% and the DC50 is at most 0.1 µM.
Consider `CC/C(=C(/c1ccc(/C=C/C(=O)O)cc1)c1ccc2[nH]ncc2c1)c1ccccc1CC` [Compound 18, (E)-3-(4-((E)-2-(2-Ethylphenyl)-1-(1H-indazol-5-yl)but-1-en-1-yl)phenyl)acrylic acid], for which, in the experiment with MCF-7 cells, the “MCF7 Viability Assay Max Response” value is given as “++ (++ = a single % value ≧ 40%)” and the IC50 was at most 0.1 µM. In addition, on ER-α, the Emax was at least 40% and the DC50 is at most 0.1 µM.
`O=C(O)/C=C/c1ccc(/C(=C(\c2ccc(Cl)cc2Cl)C2CC2)c2ccc3[nH]ncc3c2F)cc1` [Compound 123, (E)-3-(4-((E)-2-Cyclopropyl-2-(2,4-dichlorophenyl)-1-(4-fluoro-1H-indazol-5-yl)vinyl)phenyl)acrylic acid]: in the experiment with MCF-7 cells, the “MCF7 Viability Assay Max Response” value is on record as “++ (++ = a single % value ≧ 40%)” and the IC50 was at most 0.1 µM. Moreover, at ER-α, the Emax was at least 40% and the DC50 was at most 0.1 µM.
